Measurements from PubChem BioAssay (NCI).
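Cells were grown in 96-well plates and exposed to each compound for 48 hours at five concentrations; endpoints were interpolated linearly between bracketing concentrations, or set to the highest concentration if not reached. TGI: concentration producing complete growth inhibition.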

Legend:
Experiment in all cases: NCI tumour cell line growth inhibition, 48 h
[1] = tested on: 786-0 renal
[2] = tested on: A549 NSCLC
[3] = tested on: ACHN renal
[4] = tested on: BT-549 breast
[5] = tested on: CAKI-1 renal
[6] = tested on: CCRF-CEM leukemia
[7] = tested on: COLO 205 colon
[8] = tested on: DU-145 prostate
[9] = tested on: EKVX NSCLC
[10] = tested on: HCC-2998 colon
[11] = tested on: HCT-116 colon
[12] = tested on: HCT-15 colon
[13] = tested on: HL-60(TB) leukemia
[14] = tested on: HOP-62 NSCLC
[15] = tested on: HOP-92 NSCLC
[16] = tested on: HS 578T breast
[17] = tested on: HT29 colon
[18] = tested on: IGROV1 ovarian
[19] = tested on: K-562 leukemia
[20] = tested on: KM12 colon
[21] = tested on: LOX IMVI melanoma
[22] = tested on: M14 melanoma
[23] = tested on: MALME-3M melanoma
[24] = tested on: MCF7 breast
[25] = tested on: MDA-MB-231 breast
[26] = tested on: MDA-MB-435
[27] = tested on: MDA-N
[28] = tested on: MOLT-4 leukemia
[29] = tested on: NCI-H226 lung
[30] = tested on: NCI-H23 lung
[31] = tested on: NCI-H460 lung
[32] = tested on: NCI-H522 lung
[33] = tested on: NCI/ADR-RES ovarian
[34] = tested on: OVCAR-3 ovarian
[35] = tested on: OVCAR-4 ovarian
[36] = tested on: OVCAR-5 ovarian
[37] = tested on: OVCAR-8 ovarian
[38] = tested on: PC-3 prostate
[39] = tested on: RPMI-8226 leukemia
[40] = tested on: RXF 393 renal
[41] = tested on: SF-268 CNS
[42] = tested on: SF-295 CNS
[43] = tested on: SF-539 CNS
[44] = tested on: SK-MEL-2 melanoma
[45] = tested on: SK-MEL-5 melanoma
[46] = tested on: SK-OV-3 ovarian
[47] = tested on: SN12C renal
[48] = tested on: SNB-19 CNS
[49] = tested on: SR leukemia
[50] = tested on: SW-620 colon
[51] = tested on: T-47D breast
[52] = tested on: TK-10 renal
[53] = tested on: U251 CNS
[54] = tested on: UACC-62 melanoma
[55] = tested on: UO-31 renal

With `CCOC(=O)C1C(=O)C=C(c2cc(C)ccc2O)CC1c1cccc(Cl)c1` (stereo not given) the TGI [1] was greater than 100 µM, the TGI [2] was 49.1 µM and the TGI [3] was 51.7 µM. The TGI [4] was greater than 100 µM, the TGI [5] was greater than 100 µM and the TGI [6] was 94.7 µM. The TGI [7] was 34.9 µM, the TGI [8] was greater than 100 µM and the TGI [9] was greater than 100 µM. The TGI [10] was 69.8 µM, the TGI [11] was greater than 100 µM and the TGI [12] was 13.2 µM. For the same compound, the TGI [13] was 63.5 µM, the TGI [14] was greater than 100 µM and the TGI [15] was 61.5 µM. For the same compound, the TGI [16] was 58 µM, the TGI [17] was 86.7 µM and the TGI [18] was 51.1 µM. The TGI [19] was 53.8 µM, the TGI [20] was 69 µM and the TGI [21] was 57.4 µM. It also gave a TGI [22] greater than 100 µM, a TGI [23] of 75.6 µM and a TGI [24] of 74.5 µM. For the same compound, the TGI [25] was 83.4 µM, the TGI [26] was 8.23 µM and the TGI [27] was 29.8 µM. It also gave a TGI [28] greater than 100 µM, a TGI [29] of 73.5 µM and a TGI [30] of 88.6 µM. For the same compound, the TGI [31] was greater than 100 µM, the TGI [32] was 37 µM and the TGI [33] was 54.2 µM. For the same compound, the TGI [34] was greater than 100 µM, the TGI [35] was 56.2 µM and the TGI [36] was greater than 100 µM. For the same compound, the TGI [37] was greater than 100 µM, the TGI [38] was greater than 100 µM and the TGI [39] was 48.3 µM. The TGI [40] was 54.5 µM, the TGI [41] was 97.3 µM and the TGI [42] was 76.3 µM. It also gave a TGI [43] of 47 µM, a TGI [44] of 46.7 µM and a TGI [45] of 50.5 µM. For the same compound, the TGI [46] was 79.7 µM, the TGI [47] was 95.9 µM and the TGI [48] was 44.2 µM. For the same compound, the TGI [49] was 34.9 µM, the TGI [50] was greater than 100 µM and the TGI [51] was greater than 100 µM. The TGI [52] was 57.7 µM, the TGI [53] was 40.7 µM and the TGI [54] was 47 µM. The TGI [55] was 65.9 µM.
